Laboratory results taken from ChEMBL document CHEMBL2074401, “Difloxacin reverses multidrug resistance in HL-60/AR cells that overexpress the multidrug resistance-related protein (MRP) gene” (Oncol Res, 1995).

Biological target: Multidrug resistance-associated protein 1 (Homo sapiens, UniProt P33527)
Test: TP_TRANSPORTER: increase in Daunorubicin, Adriamycin and Vincristine intracellular accumulation (Daunorubicin: 4 ug/mL, Difloxacin: 62.5 uM) in HL-60/AR cells
Format: functional, cell-based

Multidrug resistance-associated protein 1, sequence (P33527 whole entry): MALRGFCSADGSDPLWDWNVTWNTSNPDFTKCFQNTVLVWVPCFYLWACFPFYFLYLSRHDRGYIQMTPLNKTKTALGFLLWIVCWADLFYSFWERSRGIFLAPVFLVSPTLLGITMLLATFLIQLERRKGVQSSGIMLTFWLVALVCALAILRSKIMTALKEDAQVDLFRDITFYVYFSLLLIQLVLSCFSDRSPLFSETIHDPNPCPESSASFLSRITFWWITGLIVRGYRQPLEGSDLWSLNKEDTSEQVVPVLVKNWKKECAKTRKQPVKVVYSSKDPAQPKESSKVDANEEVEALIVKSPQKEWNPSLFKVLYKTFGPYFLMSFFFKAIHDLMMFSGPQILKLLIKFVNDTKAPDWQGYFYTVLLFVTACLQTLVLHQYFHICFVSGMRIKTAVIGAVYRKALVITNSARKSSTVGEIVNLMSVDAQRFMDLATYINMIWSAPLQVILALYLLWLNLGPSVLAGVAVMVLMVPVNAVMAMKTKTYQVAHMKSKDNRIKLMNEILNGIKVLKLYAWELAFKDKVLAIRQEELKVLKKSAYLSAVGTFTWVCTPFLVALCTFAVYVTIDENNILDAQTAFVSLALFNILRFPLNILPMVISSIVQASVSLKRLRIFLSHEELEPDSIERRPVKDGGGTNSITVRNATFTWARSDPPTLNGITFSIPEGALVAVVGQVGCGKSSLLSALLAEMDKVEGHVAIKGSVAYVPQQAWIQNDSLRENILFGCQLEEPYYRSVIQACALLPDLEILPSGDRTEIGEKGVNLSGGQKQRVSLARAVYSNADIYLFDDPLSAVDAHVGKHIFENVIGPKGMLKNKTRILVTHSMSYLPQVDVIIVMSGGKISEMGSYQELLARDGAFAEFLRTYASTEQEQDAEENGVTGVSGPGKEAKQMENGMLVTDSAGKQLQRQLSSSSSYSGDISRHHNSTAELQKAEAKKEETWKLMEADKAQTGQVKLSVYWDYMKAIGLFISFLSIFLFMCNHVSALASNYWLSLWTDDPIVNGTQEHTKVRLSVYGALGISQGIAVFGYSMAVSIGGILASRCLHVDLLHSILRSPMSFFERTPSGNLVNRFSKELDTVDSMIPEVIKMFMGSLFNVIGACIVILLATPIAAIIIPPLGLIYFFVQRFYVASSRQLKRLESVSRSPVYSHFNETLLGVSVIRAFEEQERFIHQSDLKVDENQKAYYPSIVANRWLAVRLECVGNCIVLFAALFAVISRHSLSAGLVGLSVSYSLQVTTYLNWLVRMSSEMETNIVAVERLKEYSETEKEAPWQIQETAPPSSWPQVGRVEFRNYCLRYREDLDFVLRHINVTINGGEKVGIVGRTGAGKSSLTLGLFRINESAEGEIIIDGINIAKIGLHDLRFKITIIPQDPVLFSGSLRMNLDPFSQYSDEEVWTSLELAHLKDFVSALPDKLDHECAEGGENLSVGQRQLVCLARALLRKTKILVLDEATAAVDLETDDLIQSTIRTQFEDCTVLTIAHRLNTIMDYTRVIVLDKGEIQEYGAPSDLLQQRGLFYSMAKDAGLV

- Activity: inhibitor [1.3 to 2.9-fold]
Structure (SMILES): CN1CCN(c2cc3c(cc2F)c(=O)c(C(=O)O)cn3-c2ccc(F)cc2)CC1 [DIFLOXACIN]
